US20090099218A1, “SYNTHESIS OF NOVEL TUBULIN POLYMERIZATION INHIBITORS: BENZOYLPHENYLUREA (BPU) SULFUR ANALOGS” (priority 2007, published 2009)

How the values were obtained:
[1] = test system: Panc430; assay: MTT growth inhibition, pancreatic cell line Panc430; type: cell-based; details: MTT assay, 96 h treatment; average of three independent experiments
Description: (§1) Eight of these analogs 6d, 6h, 6n, 6g, 7b, 7d, 8g, and 8h were tested for their cytotoxicity in seven pancreatic cell lines ASPC1, Panc1, Panc203, Panc430, Pane 1005, MiaPaca2, and HS766T using MTT assay. Cells were trypsinized, seeded at 5×10^3 cells/well in 96-well plate and allowed to grow for 24 hours before the treatment with exponential increasing concentrations of drugs in the presence of 10% FBS. After a 96-hours period of treatment, 20 μl of MTT solution (5 mg/ml in PBS) were added to each well, and the plates were then incubated for 3 hours at 37° C. Medium was then replaced with 100 μl of DMSO per well. Plates were shaken and the optical density was measured at 570 nm using a multiwell plate reader (Bio-Rad, Model 550, Bio-Rad Inc., Hercules, Calif.). Each experiment was performed in triplicate for each drug concentration and was carried out independently at least 3 times. The IC50 value was defined as the concentration needed for a 50% reduction in the absorbance calculated based on the survival curves. Response to drug treatment was assessed by standardizing treatment groups to untreated controls. Compounds activity was compared with compound 1.
(§2) Table 2 (Growth Inhibition of Pancreatic Cancer Cell Lines by BPU and BPTU Analogues (IC50) a) compares the cytotoxicity of a series of new derivatives against a panel of seven pancreatic cancer cell lines, as determined by MTT assay. See, Mosmann, T., J. Immunol. Methods 65:55-63 (1983).

[2] = test system: LnCaP; assay: MTT growth inhibition, prostate cancer cell line LnCaP; type: cell-based, human; details: MTT assay, average of three independent experiments
Description: (§3) This MTT assay was carried using human prostate cancer cell lines CWR22R, LAPC-4 and LnCap using Promega cell titer 96 nonradioactive cell proliferation kits. Cells were trypsinized and centrifuged at 1000 rpm for 5 minutes and the supernatant was aspirated. Cells were resuspended with HBSS to a concentration of 10^6/ml. Cell suspension was diluted in serum containing medium to plate 2000 cells/well/0.2 ml. Cell suspension was transferred to sterile solution basin. Cells were plated using multichannel pipette set at 200 μl and incubated overnight for attachment. One plate was prepared for day 0 MTT assay as follows: 100 μl of media was removed from each well using multichannel pipette and 15 μl of MTT reagent was added. Plates were incubated at 37° C. for 4 hrs. […] of STOP solution was added to each well and incubated at room temperature for 1 hour. Absorbance was measured at 570 and 650 nm on plate reader. All the media from the remaining plates were carefully removed and the cells were treated with the media containing drug. MTT assays were done on days 0, 3, 5 and 7. In the preliminary screening […] BPU sulfur analogs 6l, 6h, 6n, 7d and 8h were screened and their activity was compared with compound 1.
(§4) Compounds with significant inhibitory activity in pancreatic cancer cells were further evaluated against prostate cancer cell lines in the MTT assay, (Mosmann, T., J. Immunol. Methods 65:55-63 (1983)) and the results were compared to those for compound 1 (Table 3).

[3] = test system: LAPC-4; assay: MTT growth inhibition, prostate cancer cell line LAPC-4; type: cell-based, human; details: MTT assay, average of three independent experiments
Description: as §3, §4

[4] = test system: Panc1005; assay: MTT growth inhibition, pancreatic cell line Panc1005; type: cell-based; details: MTT assay, 96 h treatment, average of three independent experiments
Description: as §1, §2

[5] = test system: CWR22R; assay: MTT growth inhibition, prostate cancer cell line CWR22R; type: cell-based, human; details: MTT assay, average of three independent experiments
[6] = test system: ASPC1; assay: MTT growth inhibition, pancreatic cell line ASPC1; type: cell-based; details: MTT assay, 96 h treatment, average of three independent experiments
Description: as §1, §2

[7] = test system: Panc203; assay: MTT growth inhibition, pancreatic cell line Panc203; type: cell-based; details: MTT assay, 96 h treatment, average of three independent experiments
Description: as §1, §2

[8] = test system: Miapaca2; assay: MTT growth inhibition, pancreatic cell line Miapaca2; type: cell-based; details: MTT assay, 96 h treatment, average of three independent experiments
Description: as §1, §2

[9] = test system: Panc1; assay: MTT growth inhibition, pancreatic cell line Panc1; type: cell-based; details: MTT assay, 96 h treatment, average of three independent experiments
Description: as §1, §2

[10] = test system: HS766; assay: MTT growth inhibition, pancreatic cell line HS766; type: cell-based; details: MTT assay, 96 h treatment, average of three independent experiments
Description: as §1, §2

[11] = test system: tubulin; assay: Inhibition of tubulin polymerization; type: biochemical; details: Tubulin was at 10 μM; read-out: tubulin IC50 ± SD (inhibition of tubulin polymerization)
Description: Briefly, tubulin polymerization was followed turbidimetrically at 350 nm in Beckman model DU7400 and DU7500 recording spectrophotometers equipped with electronic temperature controllers. […] Samples were pre-incubated for 15 min at 30° C. and chilled on ice. GTP (final concentration, 0.4 mmol/L) was added to each reaction mixture, and these were placed in cuvettes held at 0° C. Baselines were established, the temperature was raised to 30° C.

[12] = test system: tubulin; assay: Inhibition of [3H]colchicine binding; details: Tubulin 1 μM; [3H]colchicine and inhibitor at 5 μM

SMILES | IC50 [1] [µM] | IC50 ([2]; Homo sapiens, LNCaP) [µM] | IC50 ([3]; Homo sapiens, LAPC4) [µM] | IC50 ([4]; Homo sapiens, Panc1005) [µM] | IC50 ([5]; Homo sapiens, 22Rv1) [µM] | IC50 ([6]; Homo sapiens, ASPC1) [µM] | IC50 ([7]; Homo sapiens, Panc203) [µM] | IC50 ([8]; Homo sapiens, MIA PaCa-2) [µM] | IC50 ([9]; Homo sapiens, PANC-1) [µM] | IC50 ([10]; Homo sapiens, Hs 766) [µM] | colchicine binding (% ± SD), inhibition of [3H]colchicine binding [12] [%] | also measured
O=C(NC(=O)c1ccccc1[N+](=O)[O-])Nc1ccc(S(=O)(=O)c2ncc(Br)cn2)cc1 [Compound 8h, 1-[4-(5-Bromopyrimidine-2-sulfonyl)phenyl]-3-(2-nitrobenzoyl)-urea] | > 10 | 0.5 | 4 | > 10 | > 10 | > 10 | > 10 | 6.1 | > 10 | > 10 |  | 
O=C(NC(=O)c1ccccc1[N+](=O)[O-])Nc1ccc(Oc2nccc(Br)n2)cc1 [Compound 6m] | 10 |  |  |  |  |  |  |  |  |  | 21 ± 5 | IC50 [2]: 1 µM; IC50 [3]: 0.2 µM; IC50 [4]: > 10 µM; IC50 [5]: 5 µM; IC50 [6]: 0.77 µM; IC50 [7]: > 10 µM; IC50 [8]: 0.74 µM; IC50 [11]: 4.7 µM; IC50 [9]: 0.68 µM; IC50 [10]: 0.47 µM
COc1cc([C@@H]2c3cc4c(cc3[C@H](O)[C@H]3COC(=O)[C@H]23)OCO4)cc(OC)c1OC [podophyllotoxin, reference compound] |  |  |  |  |  |  |  |  |  |  | 77 ± 8 | 
Brc1cnc(Sc2ccc(N=CSN=COc3ccccc3)cc2)nc1 [Compound 6h] | 7.5 | > 10 | 6 | > 10 | > 10 | 10 | > 10 | 10 | 9.5 | 8.5 |  | 
O=[N+]([O-])c1ccccc1OC=NOC=Nc1ccc(Sc2ncccn2)cc1 [Compound 6l] |  | 0.5 | 0.6 |  | 5 |  |  |  |  |  |  | 
